“And” between values parts separate entries of the source, which are not always exact repeats. Equal entries are not always repeated.
Experiments:
[1] = Metabolic stability in human hepatocytes; assay type: in vitro ADME; conditions: 2 h incubation
Procedure: (§1) The metabolic stability of RVT-1201 was measured in vitro in hepatocytes, liver microsomes, lung microsomes, intestinal S9, lung S9, liver S9 and whole blood. The major metabolite detected in incubations with human hepatocytes was KAR5417 (KRS-02). RVT-1201 was rapidly metabolized to form KAR5417, with <5% remaining after a 2 h incubation. In heat deactivated rat hepatocytes, <5% RVT-1201 remained after 2 h incubation in the same study. Therefore, RVT-1201 metabolism (and KAR5417 formation) are not dependent on oxidative or conjugative enzymatic processes. Formation of KAR5417 from RVT-1201 is a de-esterification process, which implicates an esterase or esterases as the major mechanism. The enzyme(s) responsible for RVT-1201 metabolism to form KAR5417 has not been identified but are considered to be carboxylesterase(s). In addition, RVT-1201 metabolism and KAR5417 formation were investigated in rat and human whole blood(XT184028).

[2] = Stability in heat deactivated rat hepatocytes; assay type: in vitro ADME; conditions: 2 h incubation
Procedure: as §1

[3] = Stability in rat whole blood; assay type: in vitro ADME; conditions: 2 μM, 15 min
Procedure: as §1

[4] = Stability in human whole blood; assay type: in vitro ADME
Procedure: (§2) However, in human whole blood incubations, no loss of RVT-1201 was observed. […] Therefore, metabolism of RVT-1201 was assigned to a cytosolic carboxylesterase (CES1) within the PBPK model. Although the enzyme responsible for RVT-1201 elimination and KAR5417 formation has not been identified, CES1 was selected to represent the enzymatic metabolism of RVT-1201 for this fit-for-purpose PBPK model.

[5] = Intrinsic clearance in liver S9 fractions; assay type: in vitro ADME; conditions: human, liver S9 fraction
Procedure: as §1, §2

[6] = Biopharmaceutics Classification System class; assay type: physicochemical
From the text: RVT-1201 is a Biopharmaceutics Classification System (BCS) Class II or IV molecule with in vitro permeability consistent with oral bioavailability, which has been evaluated in a Phase 1 single ascending dose (SAD)/multiple ascending dose (MAD) study using a simple immediate release (IR) drug-in-capsule formulation (Clinical Study KAR5585-101). The active pharmaceutical ingredient used in this clinical study was polymorph Form 1. An optimized/enhanced oral formulation was developed with a goal to improve patient acceptance, increase the oral bioavailability relative to the IR capsule formulation to facilitate a dose reduction, reduce inter-subject variability and to optimize a formulation process suitable for larger scale manufacture. An oral IR tablet formulation and 2 spray-dried dispersion suspensions using polymorph Form 3 were investigated in a second clinical study (Clinical Study RVT-1201-1001). The purpose of this study was to assess the performance of selected formulations following oral administration to healthy subjects.

[7] = molecular target: T1, MATE1 (Homo sapiens, UniProt Q96FL8); experiment: In vitro transporter substrate assessment; assay type: in vitro ADME
T1 sequence (Q96FL8 1-570): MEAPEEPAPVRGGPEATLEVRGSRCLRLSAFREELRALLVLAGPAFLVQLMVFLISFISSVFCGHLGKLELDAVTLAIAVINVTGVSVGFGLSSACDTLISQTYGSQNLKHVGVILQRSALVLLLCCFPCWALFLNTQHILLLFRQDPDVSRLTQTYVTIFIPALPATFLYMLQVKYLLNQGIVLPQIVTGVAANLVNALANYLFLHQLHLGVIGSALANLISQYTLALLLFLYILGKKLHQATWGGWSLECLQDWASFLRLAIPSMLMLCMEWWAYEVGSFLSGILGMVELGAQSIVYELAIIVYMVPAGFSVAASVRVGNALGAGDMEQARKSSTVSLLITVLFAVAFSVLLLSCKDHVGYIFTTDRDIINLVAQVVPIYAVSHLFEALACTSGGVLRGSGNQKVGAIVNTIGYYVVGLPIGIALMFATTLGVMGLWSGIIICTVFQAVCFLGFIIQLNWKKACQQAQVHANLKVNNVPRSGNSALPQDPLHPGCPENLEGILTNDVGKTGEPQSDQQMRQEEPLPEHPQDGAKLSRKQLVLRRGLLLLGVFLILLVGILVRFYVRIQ
From the text: Consequently, the elimination of rodatristat into bile may be impacted by co-administration with agents that are BCRP inhibitors.

[8] = Metabolic stability in liver preparations across species; assay type: in vitro ADME
From the text: The metabolism of rodatristat ethyl is predominantly by esterase mediated hydrolysis of the ester pro-drug moiety to rodatristat in liver tissue preparations from human, rat, dog, and cynomolgus monkey, and intestinal and lung tissues from rat and human. Hydrolysis of rodatristat ethyl was also observed in rat blood, and to a much lesser extent in dog and human blood.

[9] = molecular target: T2, CYP2C8 (Homo sapiens, UniProt P10632); experiment: Unbound hepatic portal vein Cmax versus Ki analysis (Walsky et al); design: from tissue; host or cells: pooled human liver microsomes (n=200 donors)
T2 sequence (P10632 1-490): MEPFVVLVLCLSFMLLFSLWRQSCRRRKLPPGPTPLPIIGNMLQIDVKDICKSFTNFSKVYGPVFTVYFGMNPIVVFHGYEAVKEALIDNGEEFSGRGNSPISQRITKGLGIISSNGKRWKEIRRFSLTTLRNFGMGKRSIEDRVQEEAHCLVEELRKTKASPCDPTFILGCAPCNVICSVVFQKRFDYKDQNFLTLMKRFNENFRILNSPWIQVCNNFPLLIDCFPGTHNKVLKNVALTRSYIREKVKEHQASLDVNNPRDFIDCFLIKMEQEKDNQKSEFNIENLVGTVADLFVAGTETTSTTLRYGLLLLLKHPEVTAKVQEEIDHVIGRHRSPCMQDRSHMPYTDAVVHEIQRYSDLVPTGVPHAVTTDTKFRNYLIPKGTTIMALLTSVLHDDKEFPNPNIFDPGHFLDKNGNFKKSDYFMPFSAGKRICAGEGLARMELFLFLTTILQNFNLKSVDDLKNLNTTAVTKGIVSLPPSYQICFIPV
From the text: Walsky, et al^i evaluated criteria to assess the potential for approved drugs to elicit clinically-meaningful drug interactions via inhibition of 2C8. Following their evaluation of 209 compounds they opined that unbound hepatic portal vein concentration (Cmax, u, portal) compared to the in vitro Ki provides additional insight beyond peripheral Cmax (used for FDA criteria) as it reflects the unbound drug concentration entering the liver.
Calculation of Cmax, u, portal uses plasma Cmax, fraction of an oral dose absorbed (Fa) and measured unbound fraction in blood. For rodatristat, experimentally derived values were used for Fa determined in a rat 14C study (20%) and in vitro binding to human plasma (99.1%) and blood:plasma distribution (RB, 0.72). Walsky et al proposed a threshold where the ratio of Cmax, u, portal/Ki of <0.1 is associated with low risk. […] In the rat, the RE:R is ˜3-fold higher in portal blood compared to the periphery.

With `CCOC(=O)[C@@H]1CC2(CCN(c3cc(O[C@H](c4ccc(Cl)cc4-c4ccccc4)C(F)(F)F)nc(N)n3)CC2)CN1` [Rodatristat ethyl, (S)-ethyl 8-(2-amino-6-((R)-1-(5-chloro-[1,1′-biphenyl]-2-yl)-2,2,2-trifluoroethoxy)pyrimidin-4-yl)-2,8-diazaspiro[4.5]decane-3-carboxylate] the “Remaining after incubation with human hepatocytes” value [1] was under 5%, the “Remaining after incubation in heat deactivated rat hepatocytes” value [2] was under 5% and the “Loss in rat blood” value [3] was “Complete loss”. The “Loss in human whole blood incubations” value [4] was “no loss”, the microsomal CLint [5] was 20 µL/min/mg and the “Biopharmaceutics Classification System (BCS) Class” value [6] was “II or IV”.

For `Nc1nc(O[C@H](c2ccc(Cl)cc2-c2ccccc2)C(F)(F)F)cc(N2CCC3(CC2)CN[C@H](C(=O)O)C3)n1` [Rodatristat, (S)-8-(2-amino-6-((R)-1-(5-chloro-[1,1′-biphenyl]-2-yl)-2,2,2-trifluoroeth-oxy)pyrimidin-4-yl)-2,8-diazaspiro[4.5]decane-3-carboxylic acid], the “In vitro substrate? MATE1” value [7] was “not an in vitro substrate and No”, the “Metabolic stability in liver preparations” value [8] was “metabolically stable” and the “Cmax, u, portal/Ki” value [9] was 0.128 and < 0.128.
